The values below come from PubChem BioAssay (NCI).

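Growth conditions: 96-well plates. Treatment: test compound, 48 hours, 5 concentrations. Analysis: linear interpolation between bracketing concentrations; unreached endpoints set to highest concentration. TGI denotes the concentration required for complete inhibition of growth.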

Test systems include HCT-15 colon; HT29 colon; LOX IMVI melanoma; MALME-3M melanoma; MDA-N; NCI-H23 lung; SF-268 CNS; SK-MEL-2 melanoma; SNB-75 CNS; SW-620 colon.
Holding throughout (assay): NCI tumour cell line growth inhibition, 48 h

With `Cc1cc(=O)n2nc(CSc3n[nH]c(=S)s3)sc2n1`, the TGI with HCT-15 colon, in the experiment on HT29 colon, with LOX IMVI melanoma, in the experiment with MALME-3M melanoma, in the experiment on MDA-N and with NCI-H23 lung was over 100 µM throughout. The TGI in the experiment with SF-268 CNS, in the experiment with SK-MEL-2 melanoma, with SNB-75 CNS and in the experiment on SW-620 colon was over 100 µM throughout.

For the compound `COc1ccc(/C=C2/SC(c3c(O)ccc4ccccc34)N(NC(=O)CCCCCCCCC(=O)NN3C(=O)/C(=C\c4ccc(OC)c(OC)c4)SC3c3c(O)ccc4ccccc34)C2=O)cc1OC` (stereo not given), the TGI in the experiment with HCT-15 colon was over 100 µM; in the experiment on HT29 colon, over 100 µM; in the experiment with LOX IMVI melanoma it was 12.8 µM; in the experiment with MALME-3M melanoma it was 51.4 µM; in the experiment with MDA-N, over 100 µM; with NCI-H23 lung, over 75 µM. The TGI in the experiment on SF-268 CNS was over 100 µM; in the experiment on SK-MEL-2 melanoma, over 41.6 µM; with SNB-75 CNS it was over 100 µM; with SW-620 colon it was over 100 µM.

With `C=CC(C)(C)n1cc(C2=C(O)C(=O)C(c3c(CC=C(C)C)[nH]c4ccccc34)=C(O)C2=O)c2ccccc21`, the TGI with HCT-15 colon was found to be 7.6 µM; in the experiment with HT29 colon it was 7.36 µM; with LOX IMVI melanoma, 5.38 µM; in the experiment with MALME-3M melanoma, 3.9 µM; with MDA-N it was 4.08 µM; in the experiment with NCI-H23 lung, 19.6 µM. The TGI was determined as 5.13 µM in the experiment with SF-268 CNS, 3.41 µM in the experiment with SK-MEL-2 melanoma, 4.1 µM in the experiment with SNB-75 CNS and 13.5 µM with SW-620 colon.

As for `COC(=O)C1SC[C@H]2C(=O)N(c3ccccc3)C(=O)N12` (stereo not given in full), the TGI in the experiment with HCT-15 colon, with HT29 colon, in the experiment on LOX IMVI melanoma, in the experiment with MALME-3M melanoma, in the experiment on MDA-N and in the experiment on NCI-H23 lung was over 100 µM throughout. Besides, the TGI with SF-268 CNS, with SK-MEL-2 melanoma, with SNB-75 CNS and with SW-620 colon was over 100 µM each time.

As for `C=COC(=O)N1C2CCCC(Cl)(C(C)=O)C1CC2` (stereo not given), the TGI in the experiment on HCT-15 colon, with HT29 colon, with LOX IMVI melanoma, in the experiment on MALME-3M melanoma, in the experiment with MDA-N and in the experiment with NCI-H23 lung was over 100 µM each time. The TGI in the experiment on SF-268 CNS, with SK-MEL-2 melanoma, in the experiment on SNB-75 CNS and in the experiment with SW-620 colon was over 100 µM throughout.

As for `COc1ccc(C(=O)N(Cc2cccnc2)C(=S)N(Cc2cccnc2)C(=O)c2ccc(OC)cc2)cc1`, the TGI in the experiment with HCT-15 colon, in the experiment on HT29 colon, with LOX IMVI melanoma, in the experiment with MALME-3M melanoma, in the experiment on MDA-N and with NCI-H23 lung was over 100 µM each time. For the same compound, the TGI with SF-268 CNS was over 100 µM; in the experiment on SK-MEL-2 melanoma, over 100 µM; in the experiment with SNB-75 CNS, 42.9 µM; in the experiment with SW-620 colon it was over 100 µM.

As for `COc1cc2c3cc1Oc1c(OC)c(OC)cc4c1C(Cc1ccc(O)c(c1)-c1cc(ccc1OC)CC3N(C)CC2)N(C)CC4` (stereo not given), the TGI was found to be 25.4 µM in the experiment on HCT-15 colon; 50.4 µM with HT29 colon; 83 µM with LOX IMVI melanoma; 41.4 µM in the experiment with MALME-3M melanoma; 30.6 µM in the experiment with MDA-N; 51.5 µM in the experiment with NCI-H23 lung. Besides, the TGI with SF-268 CNS is 72.3 µM; with SK-MEL-2 melanoma, 43 µM; with SNB-75 CNS, 39.6 µM; in the experiment with SW-620 colon, over 100 µM.

With `CC1(C)CC[C@]2(C(=O)O)CC[C@]3(C)C(=CC[C@@H]4[C@@]5(C)CC[C@H](OC6OC(CO)C(O)C(O)C6O)C(C)(C)[C@@H]5CC[C@]43C)[C@@H]2C1` (stereo not given in full), the TGI was determined as 10.7 µM in the experiment on HCT-15 colon; 2.98 µM in the experiment on HT29 colon; 3.23 µM with LOX IMVI melanoma; 3.16 µM in the experiment with MALME-3M melanoma; 3.54 µM in the experiment with MDA-N; 3.52 µM in the experiment with NCI-H23 lung. The TGI in the experiment on SF-268 CNS stood at 3.51 µM; in the experiment with SK-MEL-2 melanoma, 3.15 µM; with SNB-75 CNS, 5.33 µM; in the experiment with SW-620 colon, 3.51 µM.

For the compound `COc1cc(C2SCC(=O)N2NC(=O)c2ccc(NC(C)=O)cc2OC)ccc1O` (stereo not given), the TGI with HCT-15 colon, in the experiment with HT29 colon, in the experiment with LOX IMVI melanoma, in the experiment on MALME-3M melanoma, in the experiment with MDA-N and in the experiment with NCI-H23 lung was over 100 µM throughout. For the same compound, the TGI in the experiment with SF-268 CNS was 99 µM; with SK-MEL-2 melanoma, 68.6 µM; in the experiment with SNB-75 CNS it was 46.7 µM; with SW-620 colon it was over 100 µM.

On to `CNC(=O)OCC1=C(COC(=O)NC)C(C)N(c2ccccc2)C1` (stereo not given), for which the TGI in the experiment on HCT-15 colon was over 100 µM; in the experiment on HT29 colon it was 53.7 µM; in the experiment on LOX IMVI melanoma it was over 100 µM; in the experiment with MALME-3M melanoma, 97.4 µM; in the experiment with MDA-N, over 100 µM; in the experiment with NCI-H23 lung, over 100 µM. Besides, the TGI with SF-268 CNS was over 100 µM; in the experiment with SK-MEL-2 melanoma, 70.6 µM; in the experiment with SNB-75 CNS it was 94.5 µM; with SW-620 colon, over 100 µM.

Take `COc1ccc(NC(=O)CC(=O)N2N=C(C)C(N=Nc3ccc(C(=O)O)cc3)C2=O)cc1` (stereo not given): the TGI in the experiment on HCT-15 colon, in the experiment on HT29 colon, with LOX IMVI melanoma, in the experiment with MALME-3M melanoma, with MDA-N and in the experiment on NCI-H23 lung was over 100 µM throughout. Further, the TGI with SF-268 CNS, with SK-MEL-2 melanoma, in the experiment on SNB-75 CNS and with SW-620 colon was over 100 µM in each case.

In the case of `CS(=O)(=O)CCC(N)P(=O)(O)O` (stereo not given), the TGI with HCT-15 colon, with HT29 colon, in the experiment on LOX IMVI melanoma, with MALME-3M melanoma, in the experiment on MDA-N and in the experiment with NCI-H23 lung was over 100 µM in each case. Also, the TGI in the experiment with SF-268 CNS, with SK-MEL-2 melanoma, in the experiment on SNB-75 CNS and in the experiment on SW-620 colon was over 100 µM each time.
